Source: patent US20100004174A1, “USE OF THYMOSIN ALPHA 1 FOR THE PREPARATION OF A MEDICAMENT FOR THE PREVENTION AND TREATMENT OF AUTOIMMUNE DISEASES” (SIGMA-TAU INDUSTRIE FARMACEUTICHE, priority 2006, published 2010)
No end group written: not given here.

Assays:
[1] = system: CD4+CD25+ lymphocytes isolated from the lamina propria; assay: Cytokine determination by ELISA on CD4+CD25+ lamina propria lymphocytes of mice with TNBS colitis; format: in vivo; conditions: TNBS+Tα1 mice; cells stimulated in vitro 48 h with anti-CD3 and anti-CD28, FIG. 4
Method: (§1) Treatment with thymosin alpha 1. Tα1 (purchased from Sigma, St. Louis, Mo., USA; product no. T3410; molecular formula C129H215N33O55) and the scrambled peptide were provided in the form of sterile dried powders. The powders were reconstituted in sterile water (endotoxin levels were <0.03 pg/ml, by standard Limulus lysate assay). Thymosin alpha 1 was administered at a dosage of 200 microgrammi/kg by intraperitoneal injection for 6 consecutive days starting from the day of TNBS colitis induction.
Cytokine determination. This was carried out via specific ELISA tests (ELISA kit, R&D Systems Inc, Minneapolis, Minn.) on the supernatants of lymphocyte cell cultures of CD4^+CD^25+ phenotype isolated from the lamina propria and stimulated in vitro for 48 h with antibodies directed against CD3 and CD28 molecules expressed on the lymphocytes (PharMingen, BD, Palo Alto, Calif.).
(§2) All the inflammatory and cytokine assessments were carried out the day after the end of treatment with thymosin alpha 1.

[2] = system: TNBS colitis; assay: TNBS-induced colitis model of IBD (DAS, MAS, MPO); format: in vivo, mice
Method: To this end, an IBD model was used envisaging the induction of the disease by intracolonic administration of a haptenised derivative of trinitrobenzene sulfonic acid (TNBS). The animals were treated with thymosin alpha 1, whose efficacy was evaluated according to clinical, histological and immunological parameters.
The application of hapten TNBS in the colon causes acute and chronic colitis in the rodents (Fiorucci S, Antonelli E, Distrutti E, Del Soldato P, Flower R J, Clark M J, Morelli A, Perretti M, Ignarro L J. NCX-1015, a nitric-oxide derivative of prednisolone, enhances regulatory T cells in the lamina propria and protects against 2,4,6-trinitrobenzene sulfonic acid-induced colitis in mice. Proc Natl Acad Sci U S A. 2002, 99:15770-5).
The animals were monitored daily for any onset of diarrhea, loss of body weight, blood in the faeces and to check their survival (correlated with the degree of activity of the disease, DAS). At the end of the experiment, the surviving mice were sacrificed, their colon dissected and the microscopic damage was evaluated (called mucosal activity score—MAS). The tissue segments were then used in order to measure the Myeloperoxidase (MPO) activity (an inflammation index).
The sectioned colons were examined under a microscope (×5) and classified according to their microscopic lesions on a scale from 0 to 10 based on criteria reflecting the inflammation, such as hyperemia, bowel thickening, and extension of ulcers.
MPO assays. Neutrophil infiltration in the colon was monitored by measuring MPO activity by means of a spectrophotometric assay with trimethylbenzidine (TMB) as a substrate according to a previously published method (Fiorucci S, Antonelli E, Distrutti E, Del Soldato P, Flower R J, Clark M J, Morelli A, Perretti M, Ignarro L J. NCX-1015, a nitric-oxide derivative of prednisolone, enhances regulatory T cells in the lamina propria and protects against 2,4,6-trinitrobenzene sulfonic acid-induced colitis in mice. Proc Natl Acad Sci U S A. 2002, 99:15770-5). The activity is expressed in U per mg of protein.
as §1, §2

[3] = system: EAE (experimental autoimmune encephalitis); assay: EAE model induced with MOG35-55 peptide in mice, clinical score and spinal cord histology; format: in vivo, C57BL6 mice
Method: To this end, an EAE model was used envisaging the induction of disease by administering a peptide deriving from myelin in susceptible animals. The anima were treated with thymosin alpha 1, whose efficiency was evaluated according to clinical and histological parameters.
EAE is induced in C57BL6 mice by injecting 100 microlitres of emulsion consisting of 100 microgrammes of MOG35-55 (a peptide fragment of a myelinic glycoprotein) in complete Freund adjuvant (CFA, 4 microgrammes/ml) at the base of the tail. EAE induction is favoured by the intraperitoneal administration of the pertoxic toxin at a dosage of 200 ng/mouse the day of immunisation and three days later. The treatment with thymosin alpha 1 (200 ng/Kg) is carried out via intraperitoneal injection according to two experimental designs. In the first case, thymosin is administered starting from the day of MOG administration and for three consecutive days thereafter (Tα1+MOG). In the second case, thymosin is administered starting from the tenth day after MOG administration and for three consecutive days thereafter (MOG+Tα1).
The mice were clinically evaluated daily according to the following parameters: 0, normal; 1, flacid tail or weakness of hind legs; 2, flacid tail associated with weakness of hind legs; 3, partial paralysis of hind legs; 4, total paralysis of hind legs; 5, moribund state. […]

[4] = TNBS colitis, 200 microgrammi/kg intraperitoneal for 6 consecutive days, assessed the day after end of treatment, FIG. 3

thymosin alpha 1 (Ac-SDAAVDTSSEITTKDLKEKKEVVEEAEN; ends and bridges not checked; UniProt P06454 2-29, looked up) [thymic peptide found in nature; purchased from Sigma, product no; T3410]
IL-10 production [1]: clear prevalence of IL-10 production
inflammatory/anti-inflammatory cytokine production pattern (IFN-γ, IL-17, IL-10) [1]: significantly disrupted
DAS (degree of activity of the disease) [2, 4]: drastic reduction
MAS (mucosal activity score) [2, 4]: drastic reduction
MPO (myeloperoxidase) activity in colon [2, 4]: drastic reduction
overall effect on the severity of IBD ([2]; experimental models of colitis, conclusion): protective effect
de-myelination, histological analysis of semifine spinal chord sections coloured with osmium tetroxide ([3]; MOG-immunised mice treated with thymosin alpha 1, FIG. 2): no significant sign of de-myelination
overall effect on EAE incidence and neuropathological severity ([3]; conclusion from FIG. 1 and FIG. 2): protective effect
